Data from PubChem BioAssay (NCI).
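96-well plates; 48 h exposure; 5 concentrations. Endpoints by linear interpolation between flanking doses. Not reached: highest tested concentration assigned. At the TGI there is no net growth.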

How the values were obtained:
Assay in all cases: growth of human tumour cells (NCI), 48 h
MALME-3M melanoma = tested on: MALME-3M melanoma
HOP-62 NSCLC = tested on: HOP-62 NSCLC
CAKI-1 renal = tested on: CAKI-1 renal
KM12 colon = tested on: KM12 colon
LOX IMVI melanoma = tested on: LOX IMVI melanoma
SK-MEL-5 melanoma = tested on: SK-MEL-5 melanoma
RXF 393 renal = tested on: RXF 393 renal
IGROV1 ovarian = tested on: IGROV1 ovarian
UO-31 renal = tested on: UO-31 renal
HCT-116 colon = tested on: HCT-116 colon
786-0 renal = tested on: 786-0 renal
SF-268 CNS = tested on: SF-268 CNS
M14 melanoma = tested on: M14 melanoma
DU-145 prostate = tested on: DU-145 prostate
NCI-H226 lung = tested on: NCI-H226 lung
HOP-92 NSCLC = tested on: HOP-92 NSCLC
SW-620 colon = tested on: SW-620 colon
PC-3 prostate = tested on: PC-3 prostate
HL-60(TB) leukemia = tested on: HL-60(TB) leukemia
BT-549 breast = tested on: BT-549 breast

Compound	TGI (MALME-3M melanoma) [µM]	TGI (HOP-62 NSCLC) [µM]	TGI (CAKI-1 renal) [µM]	TGI (KM12 colon) [µM]	TGI (LOX IMVI melanoma) [µM]	TGI (SK-MEL-5 melanoma) [µM]	TGI (RXF 393 renal) [µM]	TGI (IGROV1 ovarian) [µM]	TGI (UO-31 renal) [µM]	TGI (HCT-116 colon) [µM]	TGI (786-0 renal) [µM]	TGI (SF-268 CNS) [µM]	TGI (M14 melanoma) [µM]	TGI (DU-145 prostate) [µM]	TGI (NCI-H226 lung) [µM]	TGI (HOP-92 NSCLC) [µM]	TGI (SW-620 colon) [µM]	TGI (PC-3 prostate) [µM]	TGI (HL-60(TB) leukemia) [µM]	TGI (BT-549 breast) [µM]
CC1Cc2cc(O)c(O)cc2-c2cc(O)c(O)cc2CC1C (stereo not given)	20.6	41.9	48.3	14	23.1	17.4	56.4	47	85.3	34.5	39.9	> 100	29.7	> 100	67.8	46.7	42.5	61.5		
CC(=O)C(CN(C)C)C(c1ccccc1)c1c(O)c2ccccc2oc1=O (stereo not given)	> 100	> 100	> 100	> 100	> 100	> 100	> 100	> 100		> 100	> 100	> 100	> 100		> 100	> 100	> 100		> 100	
O=C1NC(N2CCCCC2)=N/C1=C\c1ccccc1O	> 100	> 100	> 100	> 100	> 100	> 100	> 100	> 100	> 100	> 100	> 100	> 100	> 100	> 100	> 100	> 100	> 100	> 100	> 100	
O=C(Nc1cc(Cl)cc(Cl)c1)/C(Cc1nc2ccccc2[nH]c1=O)=N/NC(=O)c1ccncc1	> 100	> 100	> 100	> 100	> 100	> 100		> 100	> 100	> 100	> 100		> 100			> 100	> 100		> 100	
CN(C)S(=O)(=O)n1cnc(CO)c1	> 100	> 100	> 100	> 100	> 100	> 100	> 100	> 100	> 100	> 100	> 100	> 100	> 100		> 100	> 100	> 100	> 100		> 100
O=S(=O)(c1ccccc1)n1cc(C[P+](c2ccccc2)(c2ccccc2)c2ccccc2)c2ccccc21	14.7	12.6	26.9	13.1	13.6	3.29	20.3	16	13.1	15.2	16.3	18.6	7.04		18.1	5.53	17.1		6.84	
Nc1c(N2CCOCC2)c(=O)nc2[nH]/c(=C\c3ccccc3)c(=O)n12	> 100		> 100	> 100	> 100	> 100	> 100	> 100	> 100	> 100	> 100	> 100	> 100	> 100	> 100	> 100	> 100		57.3	
NC(=O)N/N=C(/Cc1nc2ccc(C(=O)c3ccccc3)cc2[nH]c1=O)C(=O)Nc1ccc(C(F)(F)F)cc1[N+](=O)[O-]	> 100	> 100	> 100	> 100	> 100	> 100		> 100	> 100	> 100	> 100	> 100	> 100			> 100	> 100		> 100	
Clc1ccc(-c2ccc(-c3nnc(COc4ccc(OCc5nnc(-c6ccc(-c7ccc(Cl)cc7Cl)o6)o5)c(Cl)c4)o3)o2)c(Cl)c1		> 100	> 100	> 100	> 100	> 100	73.2	> 100	> 100	> 100	> 100	> 100	> 100	> 100	> 100		> 100		> 100	> 100
C[C@@H]1C2=CC[C@@]3(C)C(CCC3[C@H](C)[C@H]3C[C@@]4(C)O[C@@](c5cccnc5)(O3)OC4(C)C)[C@@H]2C2OC2[C@@]12CCC(=O)O2 (stereo not given in full)	92.7	> 100	79.6	> 100	> 100	78.1		> 100	97.1	> 100	> 100	> 100	60.6			76.9	> 100		41.4	
O=[N+]([O-])C(=C1Nc2ccccc2N1)/C(Cl)=C(/Cl)N1CCOCC1	> 100	> 100	> 100	> 100					> 100	> 100	> 100	62.5	> 100		> 100		> 100	> 100		> 100
COC(=O)c1ccccc1/C=C1\Cc2c(C)cc(C)cc2C1=O	> 100	> 100	> 100	> 100	> 100	> 100	> 100	> 100	> 100	> 100	> 100	> 100	> 100		> 100	> 100	> 100	> 100	> 100	> 100
CCN(CC)c1ccc2cc(-c3nnc(-c4ccccc4O)o3)c(=O)oc2c1	33.6	18.5	25.3	37.8	20.1	25.2		13.9	22.7	21.9	21.9	28.3	24.3	23.6			26.9	22.4	22.7	24.4
CCN(CC)CCCNc1nc(=O)[nH]c(C)c1C(=O)Nc1ccc2c(c1)c1ccccc1n2CC	> 100	> 100	> 100	> 100	> 100	> 100	> 100	> 100	> 100	> 100	> 100		> 100	> 100	> 100	> 100	> 100	> 100	> 100	
CC1(C)OCC([C@H]2CC23SCCCS3)O1 (stereo not given in full)	> 100	> 100	> 100	> 100		> 100	> 100	> 100	> 100	> 100	> 100	> 100	> 100		> 100	> 100			> 100	
O/N=C(\CC(O)(C(F)(F)F)C(F)(F)F)c1cccc(Cl)c1	> 100		68.7	> 100	62.5	31.6	46.5	84.4		> 100	> 100		62.7	> 100	60.2	56.6	> 100	83.3	82.2	
C=C1C(=O)OC2CC(=C)C3CC=C(C)C3CC12 (stereo not given)		> 100	28.2	> 100	23.5	> 100		55.5	29.3	50.4	31.3	> 100	40.9		43	28.7	32.4	28.4	87.1	59.7
[O-][N+]1=NC(c2ccccc2)=C1c1ccccc1	> 50	> 50	> 50	> 50	> 50	> 50	> 50	> 50	> 50	> 50	> 50	> 50	> 50	> 50	> 50	> 50	> 50	> 50	> 50	
COc1ccc(/C=C2\Sc3nnc(CNc4ccc(Cl)cc4)n3N=C2c2cc(F)c(Cl)cc2Cl)cc1OC		> 100	80.5	> 100	> 100	> 100	74.2	> 100	> 100	> 100	> 100	> 100	> 100	> 100	> 100	> 100	36.9	> 100	> 100	
CC1(S)CC2C(CC1Sc1ccccc1)C2(C)C (stereo not given)	> 100			> 100		> 100		> 100	> 100	> 100	> 100	> 100	> 100		> 100	> 100			> 100	
NCCCCC(=O)c1cccnc1	> 100	> 100	> 100	> 100	> 100	> 100		> 100	> 100	> 100	> 100	> 100	> 100			> 100	> 100		> 100	
O=C(O)CNn1c(SCC(=O)O)nnc(/C=C/c2c(O)ccc3ccccc23)c1=O	> 100	> 100	> 100	> 100	31.8	42.8		0.962	> 100	> 100	> 100	97.3	43.5	> 100			> 100	> 100	25.9	63.8
COc1ccc(/C=C2/NC(=S)N=C2Cl)cc1	> 100	> 100	> 100	> 100	> 100	> 100	> 100	> 100	> 100	> 100	> 100	> 100	> 100	> 100	> 100	> 100	> 100	> 100	> 100	
Cc1cnc2c(c1)C(=O)C1=C(OC(C)(C)CC1O)C2=O (stereo not given)	27.6	34		> 100	25.8	26.9	29.3	28.9	29.7	27.9	28.2	37.2	30.5		37.5	30.5	28.5		26.3	
COc1cc([C@@]23OC[C@@H]4[C@@H](OC[C@@H]42)c2cc4c(cc23)OCO4)cc(OC)c1OC	> 100	> 100	> 100	> 100			> 100	> 100	> 100	> 100	> 100	> 100	> 100	> 100			> 100	> 100		> 66.4
Cc1nn2c(C(=O)N/N=C/c3ccc([N+](=O)[O-])cc3)c(C)nc2s1	> 100	> 100	> 100	> 100	> 100	> 100	> 100	> 100	> 100	> 100	> 100	> 100	> 100	> 100	> 100	> 100	> 100		> 100	> 100
O=[N+]([O-])/C(C(Cl)=C(Cl)Cl)=C(\Nc1ccccc1)n1nnc2ccccc21	> 100	93.6	> 100	48	31.2				48.9	> 100	> 100	36.3	> 100		> 100		> 100	> 100		70.2
